Here are results for three compounds from publication PMC5663708, “Novel Benzylidene Thiazolidinedione Derivatives as Partial PPARγ Agonists and their Antidiabetic Effects on Type 2 Diabetes” (Scientific Reports, 2017).

Assay [1] has as its system NIH/3T3 mouse embryonic fibroblast cells. In words: XTT cytotoxicity assay on NIH/3T3 cells. To be noted: Mus musculus, NIH3T3, 24 h. As to the method: XTT is reduced to soluble formazan by this enzyme and formazan is quantified and directly proportional to the number of viable cells. […] NIH/3T3 cells were seeded at 1 × 10^4 cells into each well of 96-well plates. […] The XTT assay (Xenometrix, Allschwil, Switzerland) was performed according to the manufacturer’s instructions, after 24 h incubation with the compounds. The absorbance was determined after 2 h incubation at 480 nm with a reference wavelength of 680 nm using a microplate reader (BioTek, USA). […] The stock solutions of the compounds were prepared in DMSO and further dilutions were made with fresh culture medium. The final DMSO concentration was under 0.1%. Rosiglitazone and Pioglitazone were used as positive controls. All data were obtained from 3 independent experiments in quadruplicates.
In general terms: Formazan colour is commonly taken as a measure of viable cells.

Assay [2] relates to STZ-NA-induced diabetic rats. Nature of the assay: Antidiabetic activity in STZ-NA-induced type 2 diabetic rats. As to the method:
The test dose was fixed based on the predicted LD50 value. […] Diabetic rats were orally treated with the test compounds at a dose of 36 mg/kg body weight for a period of 15 days. Fasting blood glucose of control, diabetic-untreated and diabetic-treated rats were tested on Days 1, 3, 7 and 15 of the treatment period (Fig. 6A).
Male Wistar strain rats weighing about 160–200 g were used for animal studies. […] Rats were provided with rodent diet and water ad libitum. […] The animals were allowed to drink 5% glucose solution overnight to prevent STZ-NA-induced hypoglycemia[82],[83]. The rats were considered as diabetic if their blood glucose levels were above 250 mg/dL on the 3rd day after STZ-NA injection. The rats were divided into four groups of six animals in each group. Control animals received normal saline (Group I). Diabetic rats received STZ-NA injection (Group II). […] The blood glucose level of each group was checked at 1, 3, 7 and 15 Day by withdrawing blood from tail vein of the animal using glucose meter (ACCu-Chek active, Roche, Diagnostics USA).
After pharmacological screening for antidiabetic activity, the animals were subjected to overnight fasting and blood was collected from retro-orbital region under light anaesthesia for performing various biochemical experiments. All the biochemical experiments were performed using commercially available kits. Total Hb was estimated by cyanomethaemoglobin method, while HbA1c was estimated from whole blood using commercially available kits following the manufacturer guidelines (ERBA Diagnostics Inc, Accurex Biomedical Pvt. Ltd., Coral clinical systems, India). TG concentration was determined by GPO-POD enzymatic-colorimetric method. TC level was measured by the end point, CHOD-POD colorimetric methods. HDL-C was assayed by the method reported earlier. VLDL-C and LDL-C in plasma were calculated by the Friedewald formula: VLDL-C = TG/5; LDL-C = TC-(HDL-C + VLDL-C)[88]. Levels of serum urea, uric acid, and creatinine were measured using commercially available kits[89].
Rats were sacrificed under light anesthesia using diethylether at the end of the pharmacological and biochemical studies. […] Then, the tissue was sliced out into sections of 5 µm thickness by a rotator microtome and stained with hematoxylin-eosin. Obtained sections were examined by a Leica DME microscope, and representative photomicrographs were taken by a 7.1 megapixel Canon Power Shot S70 digital camera.

Another assay concerns the target T1, human PPARγ (hPPARγ) (Homo sapiens, UniProt P37231).
T1 construct: expressed in transfected cells; host or cells: HepG2 (human hepatoblastoma), transient calcium phosphate transfection
T1 sequence (P37231 238-503 limits assumed): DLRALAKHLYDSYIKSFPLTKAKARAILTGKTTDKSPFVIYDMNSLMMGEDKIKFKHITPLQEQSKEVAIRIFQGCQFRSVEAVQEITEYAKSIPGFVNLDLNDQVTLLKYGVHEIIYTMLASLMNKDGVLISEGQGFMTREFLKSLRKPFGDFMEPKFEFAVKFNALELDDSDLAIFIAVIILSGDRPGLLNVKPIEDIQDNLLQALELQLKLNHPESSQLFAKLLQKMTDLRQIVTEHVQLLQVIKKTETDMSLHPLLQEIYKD
More on the design: method as in earlier work. To be noted: PPARγ activity of metaglidasen; cited from earlier work.

What is called IC50 is the concentration at which inhibition is half-maximal. Read a high IC50 as a need for much substance. Regarding `CN(CCOc1ccc(CC2SC(=O)NC2=O)cc1)c1ccccn1` (stereo not shown) [Rosiglitazone, reference compound], the half-inhibitory concentration (IC50) in assay [1] was 662 ± 18 µM.
With `CCc1ccc(CCOc2ccc(CC3SC(=O)NC3=O)cc2)nc1` (stereo not shown) [Pioglitazone, reference compound], the blood glucose levels entry in assay [2] (36 mg/kg oral, 15 days, vs diabetic control rats) is “significantly reduced”. In assay [2] (36 mg/kg oral, 15 days, vs disease control (STZ + NA)), the Hb levels result is recorded as “significant increase”. The “histological changes of pancreas (islets, β-cells)” value in assay [2] (36 mg/kg, light microscopy, hematoxylin-eosin) is on record as “restored to near normal”. In assay [1], the half-inhibitory concentration (IC50) was over 1000 µM.
The term EC50 denotes the concentration giving half of the maximal effect. Consider `CC(=O)NCCOC(=O)[C@H](Oc1cccc(C(F)(F)F)c1)c1ccc(Cl)cc1` [metaglidasen], for which, on human PPARγ (hPPARγ), the EC50 is about 10 µM and the Emax entry is reported as “around 10%”.
